Test system: PI3K-mutated BT474 breast cancer xenograft tumors
Assay: In vivo xenograft mouse model, GPX4-iKO BT474
Conditions: nu/nu mice, CCI-779 2 mg/kg daily i.p., Dox diet induces GPX4 knockout
Method: FIG. 6 A-F. Combination of mTORC1 inhibition with ferroptosis induction leads to tumor regression in vivo. (A) CRISPR/Cas9-mediated, Dox-induced GPX4 knockout (GPX4-iKO) in BT474 cells, monitored by western blot. (B) Images of resected tumors from mice xenografted with GPX4-iKO BT474 cells. Groups of mice were treated with CCI-779 and/or Dox as indicated (n=6 per group). See Methods for detail. (C) Representative haematoxylin and eosin (H&E) and immunostaining images of GPX4, Ki67, PTGS2 and pS235/236 S6, all counterstained with haematoxylin (blue), are shown from sections of xenografted tumors. Scale bar, 50 μm. (D) Growth curves of BT474 tumors of each group. […]
FIG. 13 A-E. Combination of mTORC1 inhibition with ferroptosis induction leads to tumor regression. […] (B) BT474 tumor volume was measured every day for each mouse. […] (E) PC-3 tumor volume was measured every day for each mouse. […]
17-β-estradiol 60-day release pellets were implanted subcutaneously into the left flank 7 days before tumor inoculation. […] Tumor growth was monitored regularly via external caliper measurements. […] The maximum width (X) and length (Y) of the tumor were measured every day and the volume (V) was calculated using the formula: V=(X2Y)/2. Tumor growth was monitored over time. For all experiments, mice were sacrificed at a pre-determined endpoint. […]

SMILES: CO[C@H]1C[C@@H]2CC[C@@H](C)[C@@](O)(O2)C(=O)C(=O)N2CCCC[C@H]2C(=O)O[C@H]([C@H](C)C[C@@H]2CC[C@@H](OC(=O)C(C)(CO)CO)[C@H](OC)C2)CC(=O)[C@H](C)/C=C(\C)[C@@H](O)[C@@H](OC)C(=O)[C@H](C)C[C@H](C)/C=C/C=C/C=C/1C [CCI-779, Temsirolimus]
- tumor growth: decelerated tumor growth
